Source: US6942663B2, “Laser treatment of cutaneous vascular lesions” (Board of Regents, The University of Texas System, priority 2002, dated 2005)
“Also recorded” adds a separate entry of the source.

Assays:
Type in all cases: in vivo, hamster
[1] = tested on: blood vessels (arterioles and venules) in skin; assay: Effect of glycerol applied to the subdermal side of skin on blood flow (dorsal skin flap window preparation, CDOCT imaging)
Procedure: Hamsters were anesthetized with a 4:3 mixture of Ketamine (20 mg/ml):Rompun (100 mg/ml) and 0.15 ml/100 g body weight of the solution was delivered IP. […] This in vivo model allows the simultaneous observation of the epidermal and subdermal sides of the skin while maintaining hydration and function [Papenfuss et al., 1979]. The preparation has been used as an in vivo model for optical imaging blood vessels on the subdermal side of skin while maintaining access to the epidermis [Barton et al., 1998, Vargas et al., 2001].
The preparation includes shaving and epilating the entire dorsal area of a hamster. The skin is pulled away from the body along the dorsal midline and sutured to a vertical c-clamp. A circular region 1 cm in diameter is cut from one single thickness of skin, exposing the subdermal side of the opposing thickness of skin. An aluminum chamber is sutured to both sides of the skin, and glass is placed over the cutout section to prevent the tissue from dehydrating on the subdermal side. During the experiments, this glass is removed for improved imaging, and hydration is maintained with application of physiological saline.
Blood vessels in the skin of the dorsal window preparation are located in the subdermal fat and connective tissue layers approximately 400-700 μm beneath the epidermal surface and about 80-100 μm from the exposed subdermal surface of a 100 g hamster. Arterioles and venules in the dorsal window preparation range in diameter between about 50-500 μm in inner diameter, with the main arteriole and venule about 350-500 μm in diameter.
(§1) Anhydrous glycerol was applied to the subdermal side of the dorsal skin flap window preparation. The subdermal side of the window preparation contains a well approximately 2 mm deep and 1 cm in diameter placed directly over the exposed subdermal skin. A small opening at the bottom allows the flow of glycerol out of the well. This well was filled with glycerol and continually refilled for a total time of twenty minutes. Any remaining glycerol was removed from the well at the end of twenty minutes.
(§2) The skin surrounding the main arteriole-venute pair in each window preparation was first imaged using Color Doppler optical coherence tomography (CDOCT) (see FIG. 5). The skin was imaged from the subdermal side since these blood vessels are located approximately 100 μm from the subdermal surface, allowing for accurate determination of vessel flow and size characteristics. In the case of control samples (2), the vessels were irradiated from the epidermal side immediately after imaging the native skin. This was achieved by applying a single pulse from a 532 nm, 3 mm spot size, 10 ms pulse duration laser (Versapulse V, Coherent) to the skin without altering its position relative to the CDOCT sample probe. The experimental setup is illustrated in FIG. 5.
(§3) In the other three samples, glycerol was applied to the subdermal side of the window preparation for twenty minutes after imaging the native skin with CDOCT. The optically cleared skin was then imaged again using CDOCT. Laser pulses were applied in the same manner described above and the skin was re-imaged after twenty-four hours to assess if permanent vessel closure occurred.

[2] = tested on: arterioles and venules of the dorsal skin flap window preparation; assay: Subdermal (direct) laser irradiation of blood vessels after glycerol, RE50 for permanent coagulation; details: 532 nm, 10 ms pulse, 3 mm spot, versus published native skin values [Barton et al., 1998]
Excerpt: as §1

[3] = tested on: main arteriole-venule pair of the dorsal skin flap window preparation; assay: Epidermal laser irradiation of main arteriole-venule pair after glycerol, CDOCT assessment at 24 h
Excerpt: as §1
In this set of experiments, three dorsal skin flap window preparations were treated with glycerol on the subdermal side of the skin. Then, the main arteriole-venule pair (such as the one labeled A and V in FIG. 3) was irradiated from the epidermal side to determine the approximate range of radiant exposures required to permanently destroy blood vessels in skin treated with glycerol. Since no published data exists for direct comparison with controls, two native hamster dorsal skin flap window preparations were irradiated from the epidermal side as well.
as §2
The skin was imaged again to assess changes to blood flow. […] If any changes in flow or vessel size were observed, the skin was not irradiated again and was imaged after 24 hours. In all, 5 pulses were delivered ranging in radiant exposure from 4.13 J/cm^2 to 16 J/cm^2, the maximum allowable for the laser parameters used. In the second control sample, only a single pulse was delivered with a radiant exposure of 12 J/cm^2.
as §3

Compound: OCC(O)CO [glycerol]
- permanent vessel damage from agent alone ([1]; addition of agent to blood vessels, no laser): did not result in any permanent vessel damage
- flow in arterioles ([1]; glycerol added to subdermal side of skin, prolonged periods of exposure): flow in arterioles ceased as well
- flow in venules ([1]; glycerol added to subdermal side of skin, within twenty minutes, venules approximately 100-400 μm in diameter): ceased
- flow in arteriole and venule (Doppler image) ([1]; glycerol for twenty minutes, arteriole 250 μm, venule 300 μm, imaged from subdermal side): no flow remains; also recorded: flow does not remain in either the arteriole or venule
- flow in arterioles and venules after hydration (reversibility) ([1]; skin hydrated in physiologic saline solution after glycerol): returned to physiologic values; also recorded: upon hydration the skin and blood vessels return to their native state
- reduction of radiant exposure required for permanent vessel destruction, arterioles [2]: 10 factor
- reduction of radiant exposure required for permanent vessel destruction, venules [2]: 5-8 factor
- vessel outcome 24 h after single pulse of 1.6 J/cm^2 ([3]; glycerol twenty minutes, arteriole 250 μm, venule 300 μm, 450 μm from epidermal surface, skin hydrated): Permanent coagulation has been achieved in both blood vessels; also recorded: flow has not returned to either vessel
- vessel outcome after radiant exposure of 4.13 J/cm^2 ([3]; glycerol, 200 μm arteriole and 410 μm venule): successful permanent coagulation
- vessel outcome after radiant exposure of 4.95 J/cm^2 ([3]; glycerol, 300 μm arteriole and 390 μm venule): only the venule was successfully coagulated
- lowest radiant exposure that successfully destroyed blood vessels ([3]; three window preparations, glycerol before irradiation from the epidermal side, 532 nm, 10 ms, 3 mm spot): 1.6 J/cm^2
